Assay results taken from ChEMBL document CHEMBL1122322, “Synthesis and antileishmanial activity of 6-methoxy-4-methyl-N-[6-(substituted-1-piperazinyl)hexyl]-8-quinolinamines and related compounds” (1983).
Active and inactive are the calls of the source. No cut-off for these calls is given here.

Columns and labels:
Leishmania donovani [1] = assay: Antileishmanial activity against Leishmania donovani infections in hamsters (0.81 mg/kg); type: functional
Leishmania donovani [2] = assay: Antileishmanial activity against Leishmania donovani infections in hamsters (at 13 mg/kg).; type: functional
Leishmania donovani [3] = assay: (§1) Antileishmanial activity against Leishmania donovani infections in hamsters (208 mg/kg); type: functional, organism-based
Leishmania donovani [4] = assay: Antileishmanial activity against Leishmania donovani infections in hamsters (3.25 mg/kg); type: functional
Leishmania donovani [5] = assay: Antileishmanial activity against Leishmania donovani infections in hamsters (at 52 mg/kg).; type: functional
Leishmania donovani [6] = assay: Glucantime (meglumine antimoniate) index (G index) against Leishmania donovani infections in hamsters.; type: functional
Leishmania donovani [7] = assay: Antileishmanial activity against Leishmania donovani infections in hamsters (208 mg/kg): Inactive; type: functional, organism-based
Leishmania donovani [8] = assay: as §1; type: functional
Leishmania donovani [9] = assay: Antileishmanial activity against Leishmania donovani infections in hamsters (3.25 mg/kg); NA means inactive; type: functional, organism-based
Leishmania donovani [10] = assay: Antileishmanial activity against Leishmania donovani infections in hamsters (104 mg/kg); type: functional, organism-based
Leishmania donovani [11] = assay: Antileishmanial activity against Leishmania donovani infections in hamsters (0.2 mg/kg); type: functional
Leishmania donovani [12] = assay: Antileishmanial activity against Leishmania donovani infections in hamsters (0.05 mg/kg); type: functional

Row | Compound | Suppression (Leishmania donovani [1]) | Suppression (Leishmania donovani [2]) | Suppression (Leishmania donovani [3]) | Suppression (Leishmania donovani [4]) | Suppression (Leishmania donovani [5]) | G index (Leishmania donovani [6]) | further results
1 | CCNC(=O)N1CCN(CCCCCCNc2cc(OC)cc3c(C)ccnc23)CC1.Cl | 35.9% | 99.2% | Toxic | 84.1% | 100% | 9 | –
2 | COc1cc(NCCCCCCN2CCN(S(=O)(=O)c3ccccc3)c3ccccc32)c2nccc(C)c2c1 | – | – | – | – | – | – | Suppression (Leishmania donovani [7]): inactive
3 | COc1cc(NCCCCCCN2CCN(CCCN(C)C)CC2)c2nccc(C)c2c1.Cl | – | 65.8% | Toxic | – | 99.7% | 2 | –
4 | CCOC(=O)N1CCN(CCCCCCNc2cc(OC)cc3c(C)ccnc23)CC1 | 23.9% | 99.9% | – | 99.1% | 99.9% | 33 | Suppression (Leishmania donovani [8]): 99.5%
5 | COc1cc(NCCCCCCN2CCN(C(=O)N3CCCC3)CC2)c2nccc(C)c2c1.Cl | 4.6% | 100% | – | 98.8% | 99.8% | 2.3 | Suppression (Leishmania donovani [8]): 100%
6 | COc1cc(NCCCCCCN2CCN(C)CC2)c2nccc(C)c2c1.Cl | 64.7% | 99.7% | – | 99.3% | 100% | 26 | Suppression (Leishmania donovani [8]): 99.7%
7 | COc1cc(NCCCCCCN2CCN(CCCCCCNc3cc(OC)cc4c(C)ccnc34)CC2)c2nccc(C)c2c1 | – | – | – | – | – | – | Suppression (Leishmania donovani [7]): inactive
8 | COc1cc(NCCCCCCN2CC(C)OC(C)C2)c2nccc(C)c2c1.Cl (centres undefined) | 61% | 99.1% | Toxic | 98.7% | 99.1% | 24 | –
9 | COc1cc(NCCCCCCN2CCN(CCOC(c3ccccc3)c3ccccc3)CC2)c2nccc(C)c2c1.Cl | – | 83.5% | – | – | 99.5% | 5 | Suppression (Leishmania donovani [8]): 100%
10 | MEGLUMINE ANTIMONATE | – | 42% | – | – | – | 1 | NA (Leishmania donovani [9]): inactive; Suppression (Leishmania donovani [10]): 91.3%
11 | CCN(CC)CCCCCCNc1cc(OC)cc2c(C)cc(C)nc12.Cl | – | – | – | – | – | 32 | –
12 | COc1cc(NCCCCCCN2C[C@H](C)S[C@@H](C)C2)c2nccc(C)c2c1 | – | 21.4% | – | – | 65% | 0.4 | Suppression (Leishmania donovani [8]): 98.2%
13 | COc1cc(NCCCCCCN2CCN(C(c3ccccc3)c3ccc(Cl)cc3)CC2)c2nccc(C)c2c1.Cl.Cl (centres undefined) | 70% | 99.4% | Toxic | 100% | 96.8% | 23 | –
14 | CCCN(CCC)C(=O)N1CCN(CCCCCCNc2cc(OC)cc3c(C)ccnc23)CC1.Cl | – | 89.7% | – | – | 99.4% | 6 | Suppression (Leishmania donovani [8]): 100%
15 | COc1cc(NCCCCCCNC(C)C)c2nc(C)cc(C)c2c1.Cl | – | – | – | – | – | 42 | –
16 | COc1cc(NCCCCCCN2CCN(C(=O)OCc3ccccc3)CC2)c2nccc(C)c2c1.Cl | – | 54.6% | Toxic | – | 98% | 2.3 | –
17 | COc1cc(NCCCCCCN2CCS(=O)(=O)CC2)c2nccc(C)c2c1 | – | 35% | – | – | 67.6% | 0.5 | Suppression (Leishmania donovani [8]): 100%
18 | CCN(CC)CC(O)CN1CCN(CCCCCCNc2cc(OC)cc3c(C)ccnc23)CC1.Cl (centres undefined) | – | 99.7% | Toxic | 32.6% | 99.9% | 6 | –
19 | COc1cc(NCCCCCCN2CC[S+]([O-])CC2)c2nccc(C)c2c1.Cl | – | 84.8% | Toxic | – | 92.8% | 3 | –
20 | COc1cc(NCCCCCCN2CCN(CCCO)CC2)c2nccc(C)c2c1 | – | 96.3% | Toxic | – | 97.8% | 38 | –
21 | COc1cc(NCCCCCCN2CC(C)NC(C)C2)c2nccc(C)c2c1 (centres undefined) | 97.9% | 100% | Toxic | 99.8% | 100% | 72 | Suppression (Leishmania donovani [11]): 1.3%
22 | COc1cc(NCCCCCCN2CCN(C3CCCCC3)CC2)c2nccc(C)c2c1 | – | – | – | – | – | – | Suppression (Leishmania donovani [7]): inactive

Row | Compound | Suppression (Leishmania donovani [1]) | Suppression (Leishmania donovani [2]) | Suppression (Leishmania donovani [3]) | Suppression (Leishmania donovani [4]) | Suppression (Leishmania donovani [5]) | G index (Leishmania donovani [6]) | further results
23 | CCN(CC)CCCCCCNc1cc(OC)c(Oc2cccc(C(F)(F)F)c2)c2c(C)ccnc12 | – | 99.6% | Toxic | – | 100% | – | –
24 | COc1cc(NCCCCCCN2CCN(CC(C)O)CC2)c2nccc(C)c2c1.Cl (centres undefined) | 99.8% | 99.1% | Toxic | 99.4% | 99.7% | 143 | Suppression (Leishmania donovani [12]): 35%; Suppression (Leishmania donovani [11]): 75.7%
25 | COc1cc(NCCCCCCN2C[C@@H](C)S[C@@H](C)C2)c2nccc(C)c2c1 | – | 81.1% | Toxic | – | 93.7% | 1.5 | –
26 | CCN(CC)C(=O)N1CCN(CCCCCCNc2cc(OC)cc3c(C)ccnc23)CC1.Cl | – | 98.8% | Toxic | 72.2% | 98.6% | 8 | –
27 | CC/N=C(\S)N1CCN(CCCCCCNc2cc(OC)cc3c(C)ccnc23)CC1.Cl | – | – | – | – | – | 2 | –
28 | CCS(=O)(=O)N1CCN(CCCCCCNc2cc(OC)cc3c(C)ccnc23)CC1 | – | 94.8% | – | – | 99.8% | 4 | Suppression (Leishmania donovani [8]): 99.9%
29 | COc1cc(NCCCCCCN2CCN(CCO)CC2)c2nccc(C)c2c1.Cl | 85.8% | 100% | – | 97% | 100% | 104 | –
30 | CCS(=O)(=O)CCN1CCN(CCCCCCNc2cc(OC)cc3c(C)ccnc23)CC1 | 21.1% | 99.7% | – | 99.6% | 99.5% | 19 | Suppression (Leishmania donovani [8]): 99.9%
31 | CCCCCCCCCCCCN1CCN(CCCCCCNc2cc(OC)cc3c(C)ccnc23)CC1 | – | – | – | – | – | – | Suppression (Leishmania donovani [7]): inactive
32 | COc1cc(NCCCCCCNC(C)C)c2nccc(C)c2c1Oc1cccc(C(F)(F)F)c1 | – | 98.6% | Toxic | – | – | – | –
33 | COc1cc(NCCCCCCN2CCN(CC(O)CO)CC2)c2nccc(C)c2c1.Cl (centres undefined) | 98.5% | 100% | Toxic | 99.98% | 99.9% | 57 | Suppression (Leishmania donovani [11]): 25.8%
34 | COc1cc(NCCCCCCN2CCN(CCO)CC2)c2nccc(C)c2c1Oc1cccc(C(F)(F)F)c1.Cl | – | 98% | Toxic | – | 99.1% | – | –
35 | COc1cc(NCCCCCCN2CCSCC2)c2nccc(C)c2c1.Cl | 27.61% | 99.8% | Toxic | 59.9% | 100% | 6.4 | –
36 | COc1cc(NCCCCCCN2CCCN(C)CC2)c2nccc(C)c2c1 | 61% | 99.8% | – | 91.2% | 99.4% | 12 | Suppression (Leishmania donovani [8]): 98.6%
37 | COc1cc(NCCCCCCN2CCNc3ccccc32)c2nccc(C)c2c1 | – | – | – | – | – | – | Suppression (Leishmania donovani [7]): inactive
38 | CCC(CC)C(=O)N1CCN(CCCCCCNc2cc(OC)cc3c(C)ccnc23)CC1.Cl | – | 56.6% | – | – | 99.3% | 2.6 | Suppression (Leishmania donovani [8]): 98.6%
39 | COc1cc(NCCCCCCN2CCN(c3ccccn3)CC2)c2nccc(C)c2c1 | 18.9% | 95.9% | – | 24.4% | 97.8% | 5 | Suppression (Leishmania donovani [8]): 97.5%
40 | COc1cc(NCCCCCCN2CCN(C(=O)N(c3ccccc3)c3ccccc3)CC2)c2nccc(C)c2c1 | – | – | – | – | – | – | Suppression (Leishmania donovani [7]): inactive
41 | CCN(CC)CCCCCCNc1cc(OC)cc2c(C)ccnc12 [SITAMAQUINE] | 100% | 100% | Toxic | – | 100% | 474 | Suppression (Leishmania donovani [12]): 83.7%; Suppression (Leishmania donovani [11]): 99.6%
42 | COc1cc(NCCCCCCN2CCN(CCC(C)C)CC2C)c2nccc(C)c2c1.Cl (centres undefined) | 96.6% | 98.9% | Toxic | 100% | 99.8% | 72 | Suppression (Leishmania donovani [11]): 57.3%
43 | COc1cc(NCCCCCCN2CCN(c3ccc(Cl)c(Cl)c3)CC2)c2nccc(C)c2c1 | – | – | – | – | – | <1 | Suppression (Leishmania donovani [8]): 77.8%
44 | CCC(C)NCCCCCCNc1cc(OC)cc2c(C)cc(C)nc12.Cl (centres undefined) | – | – | – | – | – | 28 | –
